# Source: patent publication US5399487A, “6-peptidylamino-1-naphthalenesulfonamides useful as fluorogenic proteolytic enzyme substrates” (Haematologic Technologies, Inc., priority 1993, dated 1995)
# Experiments:
# factor Xa = factor Xa (Homo sapiens, UniProt P00742); test: Fluorogenic enzyme assay (Example 5); type: biochemical; settings: for Km / kcat /Km, Xa / kcat, Xa: Table 7; for Time (min) for 10% hydrolysis, Xa: enzyme 100 nM, substrate 1 μM
# Protocol: (§1) Enzyme assays (except factor VIIa assays, see below) were conducted in 20 mM Tris, 150 mM NaCl, pH 7.4 (TBS) at room temperature (22° C.). The final volume for all reaction mixtures was 2.0 ml. Fluorogenic substrates were dissolved in DMSO to a stock concentration of 10 mM. The 10 mM stock solution was diluted in TBS to the final working concentration prior to all assays. Enzyme was added to mixtures containing buffer components and substrate and the initial rate of substrate hydrolysis was measured as the change in fluorescent intensity over time, corresponding to the generation of the particular 6-amino-1-naphthalenesulfonamide fluorophore from the provided substrate. Quantitation of substrate hydrolysis was accomplished by establishing a standard curve from the appropriate fluorescent moiety. Fluorescence was monitored (continuously or discontinuously) using a Perkin Elmer fluorescence spectrophotometer, model MPF-44A, equipped with a standard chart recorder. The fluorophore was detected using monochrometers set at an excitation wavelength of 352 nm and an emission wavelength of 470 nm. Light scattering artifacts were minimized using a 399 nm cut off filter in the emission light beam.
# (§2) The kinetic constants of substrate hydrolysis were determined using the non-linear least squares regression analysis program ENZFITTER (Cambridge, UK). This program was used to iteratively fit initial rates of substrate hydrolysis to the Michaelis-Menten equation and the kinetic constants of substrate hydrolysis (Km) and (kcat) were calculated.
# [1] = target: tissue plasminogen activator (t-PA) (Homo sapiens, UniProt P00750); test: Fluorogenic enzyme assay (Example 5); type: biochemical; settings: enzyme 100 nM, substrate 1 μM; for hydrolysis, t-PA (symbol N.D.): after 24 hrs
# Sequence of tissue plasminogen activator (t-PA) (P00750 36-562, species assumed): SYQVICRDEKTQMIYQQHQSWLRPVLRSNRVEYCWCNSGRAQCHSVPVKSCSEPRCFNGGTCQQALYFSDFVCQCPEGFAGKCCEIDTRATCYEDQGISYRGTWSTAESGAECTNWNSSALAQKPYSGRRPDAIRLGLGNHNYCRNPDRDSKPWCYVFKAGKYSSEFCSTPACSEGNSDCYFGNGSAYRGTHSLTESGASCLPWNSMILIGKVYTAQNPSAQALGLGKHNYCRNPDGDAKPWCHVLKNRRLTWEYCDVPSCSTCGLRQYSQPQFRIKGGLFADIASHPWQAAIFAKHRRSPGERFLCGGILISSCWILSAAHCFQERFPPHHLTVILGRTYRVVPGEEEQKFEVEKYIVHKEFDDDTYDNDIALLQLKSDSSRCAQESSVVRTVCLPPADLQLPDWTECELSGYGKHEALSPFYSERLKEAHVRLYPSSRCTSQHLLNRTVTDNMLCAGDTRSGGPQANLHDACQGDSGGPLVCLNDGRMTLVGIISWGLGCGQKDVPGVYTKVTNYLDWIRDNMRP
# Protocol: as §1, §2
# plasmin (Plm) = plasmin (Plm) (Homo sapiens, UniProt P00747); test: Fluorogenic enzyme assay (Example 5); type: biochemical; settings: enzyme 100 nM, substrate 1 μM; for Time (min) for 5% hydrolysis, Plm: footnote b
# Sequence of plasmin (Plm) (P00747 581-810 limits assumed, species assumed): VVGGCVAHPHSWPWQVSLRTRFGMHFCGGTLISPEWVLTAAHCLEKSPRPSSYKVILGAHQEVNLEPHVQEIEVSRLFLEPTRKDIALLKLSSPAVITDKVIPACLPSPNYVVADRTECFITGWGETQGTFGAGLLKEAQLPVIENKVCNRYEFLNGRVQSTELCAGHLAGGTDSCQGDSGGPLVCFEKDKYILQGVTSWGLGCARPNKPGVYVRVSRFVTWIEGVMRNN
# Sequence of plasmin (Plm) (P00747 97-580 limits assumed, species assumed): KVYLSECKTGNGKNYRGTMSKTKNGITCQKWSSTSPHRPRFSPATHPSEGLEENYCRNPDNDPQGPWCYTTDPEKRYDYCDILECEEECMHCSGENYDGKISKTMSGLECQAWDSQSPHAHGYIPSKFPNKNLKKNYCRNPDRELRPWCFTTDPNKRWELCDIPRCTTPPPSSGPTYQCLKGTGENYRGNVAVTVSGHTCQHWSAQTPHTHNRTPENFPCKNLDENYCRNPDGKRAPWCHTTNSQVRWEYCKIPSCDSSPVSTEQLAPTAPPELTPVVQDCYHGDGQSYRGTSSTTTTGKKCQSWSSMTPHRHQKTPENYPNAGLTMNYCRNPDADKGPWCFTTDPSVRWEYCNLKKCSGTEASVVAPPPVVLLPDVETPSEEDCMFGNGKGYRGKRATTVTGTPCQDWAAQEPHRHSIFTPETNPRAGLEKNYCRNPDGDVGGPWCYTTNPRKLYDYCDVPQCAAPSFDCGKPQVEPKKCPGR
# Protocol: as §1, §2
# urokinase (u-PA) = urokinase (u-PA) (Homo sapiens, UniProt P00749); test: Fluorogenic enzyme assay (Example 5); type: biochemical; settings: enzyme 100 nM, substrate 1 μM; for hydrolysis, u-PA (symbol N.D.): after 24 hrs
# Protocol: as §1, §2
# [2] = target: activated protein C (APC) (Homo sapiens, UniProt P04070); test: Fluorogenic enzyme assay (Example 5); type: biochemical; set-up: key to Hydrolysis kinetic constants, APC (symbol b): Slow substrate hydrolysis, no kinetic constants calculated; settings: for Time (min) for 10% hydrolysis, APC: enzyme 100 nM, substrate 1 μM
# Sequence of activated protein C (APC) (P04070 212-461 limits assumed): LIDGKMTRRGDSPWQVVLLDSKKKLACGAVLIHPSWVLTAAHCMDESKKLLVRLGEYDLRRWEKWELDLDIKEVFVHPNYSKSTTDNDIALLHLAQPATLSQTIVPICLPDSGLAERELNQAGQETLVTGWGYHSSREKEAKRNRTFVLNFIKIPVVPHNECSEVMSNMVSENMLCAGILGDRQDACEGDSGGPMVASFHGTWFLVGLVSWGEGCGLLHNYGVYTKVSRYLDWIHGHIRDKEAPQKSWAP
# Sequence of activated protein C (APC) (P04070 43-197 limits assumed): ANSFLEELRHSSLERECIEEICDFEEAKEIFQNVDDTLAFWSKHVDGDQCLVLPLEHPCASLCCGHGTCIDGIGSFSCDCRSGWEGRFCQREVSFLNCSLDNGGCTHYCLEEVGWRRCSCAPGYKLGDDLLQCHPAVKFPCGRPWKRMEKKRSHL
# Protocol: as §1, §2
# thrombin (IIa) = target: T1, thrombin (IIa) (Homo sapiens, UniProt P00734); test: Fluorogenic enzyme assay (Example 5); type: biochemical; set-up: key to Hydrolysis kinetic constants, IIa (symbol b): Slow substrate hydrolysis, no kinetic constants calculated; settings: for Time (min) for 10% hydrolysis, IIa: enzyme 100 nM, substrate 1 μM
# T1 construct: 0.5 nM human thrombin (IIa)
# Protocol: as §1, §2
# [3] = Fluorescence of 6-amino-1-naphthalenesulfonamides and substrates; type: physicochemical; settings: for Relative Fluorescence: TBS, pH 7.4, 22°C., 1 μM, relative to ANSNH(i-C4 H9), excitation 352 nm, emission 470 nm; for Emission Maxima: free fluorophore
# Excerpt: Each of the 6-amino-1-naphthalenesulfonamide detecting groups, i.e., the free fluorophores, have excitation maxima near 350 nm with emission maxima ranging from 465 to 476 nm. Fluorescent measurements show a 2.2 fold range in the intensities of the fluorescent signals among the fifteen synthesized compounds. The 6-peptidylamino-1-naphthalenesulfonamide fluorogenic substrates have a relative fluorescent intensity at 470 nm which is less than 0.1% of that of the respective free fluorophore. Detection of the free fluorophore can be reliably achieved (>2× background) at a concentration of about 10^-9 M in the presence of about 10^-6 fluorogenic substrate.
# ^a Measured in TBS, pH 7.4. 22°C.. Concentration of ANSNR
# R2 = 1 μM. Fluorescence is expressed relative of ANSNH(i-C4
# H9). Excitation wavelength = 352 nm, Emission wavelength = 470 nm.
# Sequence of factor Xa (P00742 235-488 limits assumed): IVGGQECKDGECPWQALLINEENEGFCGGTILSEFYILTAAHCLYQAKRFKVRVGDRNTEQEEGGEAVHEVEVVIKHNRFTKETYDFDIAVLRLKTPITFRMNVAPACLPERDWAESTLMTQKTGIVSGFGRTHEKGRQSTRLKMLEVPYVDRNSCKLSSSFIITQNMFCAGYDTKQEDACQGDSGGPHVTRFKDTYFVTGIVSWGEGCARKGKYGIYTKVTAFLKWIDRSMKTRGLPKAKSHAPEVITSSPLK
# Sequence of factor Xa (P00742 41-179 limits assumed): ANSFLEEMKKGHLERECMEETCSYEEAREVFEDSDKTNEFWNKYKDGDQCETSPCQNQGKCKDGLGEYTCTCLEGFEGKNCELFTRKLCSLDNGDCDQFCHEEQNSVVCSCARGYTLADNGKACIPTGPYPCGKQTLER
smiles,measurement,setting,value
"Br.CCN(CC)S(=O)(=O)c1cccc2cc(NC(=O)[C@H](CCCNC(=N)N)NC(=O)OCc3ccccc3)ccc12 [(N^α -Z)ArgANSNR1 R2; C2 H5; C2 H5, 6-(N^α -benzyloxycarbonyl-L-arginyl)amino-1-(N,N-diethyl)napthalenesulfonamide hydrobromides]",Km,factor Xa,200 µM
same,"kcat /Km, Xa",factor Xa,1290 M⁻¹ s⁻¹
same,"kcat, Xa",factor Xa,0.26 s⁻¹
same,"Time (min) for 10% hydrolysis, Xa",factor Xa,14 min
same,"hydrolysis, t-PA (symbol N.D.)",[1],N.D. (Less than 5% hydrolysis after 24 hrs.)
same,"Time (min) for 5% hydrolysis, Plm",plasmin (Plm),1370 min
same,"hydrolysis, u-PA (symbol N.D.)",urokinase (u-PA),N.D. (Less than 5% hydrolysis after 24 hrs.)
same,"Time (min) for 10% hydrolysis, APC",[2],1080 min
same,"Hydrolysis kinetic constants, IIa (symbol b)",thrombin (IIa); Table 7,b
same,"Time (min) for 10% hydrolysis, IIa",thrombin (IIa),165 min
Br.CC(C)(C)NS(=O)(=O)c1cccc2cc(NC(=O)[C@H](CCCNC(=N)N)NC(=O)OCc3ccccc3)ccc12 [(N^α -Z)ArgANSNR1 R2; H; t-C4 H9],Km,factor Xa,114 µM
same,"kcat /Km, Xa",factor Xa,487 M⁻¹ s⁻¹
same,"kcat, Xa",factor Xa,0.06 s⁻¹
same,"Time (min) for 10% hydrolysis, Xa",factor Xa,45 min
same,"hydrolysis, t-PA (symbol N.D.)",[1],N.D. (Less than 5% hydrolysis after 24 hrs.)
same,"Time (min) for 5% hydrolysis, Plm",plasmin (Plm),910 min
same,"Time (min) for 10% hydrolysis, u-PA",urokinase (u-PA),1260 min
same,Km,[2]; Table 7,738 µM
same,"kcat /Km, APC",[2]; Table 7,540 M⁻¹ s⁻¹
same,"kcat, APC",[2]; Table 7,0.4 s⁻¹
same,"Time (min) for 10% hydrolysis, APC",[2],45 min
same,Km,thrombin (IIa); Table 7,24 µM
same,"kcat /Km, IIa",thrombin (IIa); Table 7,930 M⁻¹ s⁻¹
same,"kcat, IIa",thrombin (IIa); Table 7,0.02 s⁻¹
same,"Time (min) for 10% hydrolysis, IIa",thrombin (IIa),34 min
Br.CCCNS(=O)(=O)c1cccc2cc(NC(=O)[C@H](CCCNC(=N)N)NC(=O)OCc3ccccc3)ccc12 [(N^α -Z)ArgANSNR1 R2; H; C3 H7],Km,factor Xa,125 µM
same,"kcat /Km, Xa",factor Xa,593 M⁻¹ s⁻¹
same,"kcat, Xa",factor Xa,0.07 s⁻¹
same,"Time (min) for 10% hydrolysis, Xa",factor Xa,40 min
same,"hydrolysis, t-PA (symbol N.D.)",[1],N.D. (Less than 5% hydrolysis after 24 hrs.)
same,"Time (min) for 5% hydrolysis, Plm",plasmin (Plm),1620 min
same,"Time (min) for 10% hydrolysis, u-PA",urokinase (u-PA),220 min
same,Km,[2]; Table 7,320 µM
same,"kcat /Km, APC",[2]; Table 7,1470 M⁻¹ s⁻¹
same,"kcat, APC",[2]; Table 7,0.47 s⁻¹
same,"Time (min) for 10% hydrolysis, APC",[2],15 min
same,Km,thrombin (IIa); Table 7,22.2 µM
same,"kcat /Km, IIa",thrombin (IIa); Table 7,1580 M⁻¹ s⁻¹
same,"kcat, IIa",thrombin (IIa); Table 7,0.04 s⁻¹
same,"Time (min) for 10% hydrolysis, IIa",thrombin (IIa),27 min
Br.CCCCCNS(=O)(=O)c1cccc2cc(NC(=O)[C@H](CCCNC(=N)N)NC(=O)OCc3ccccc3)ccc12 [(N^α -Z)ArgANSNR1 R2; H; C5 H11],Km,factor Xa,36.8 µM
same,"kcat /Km, Xa",factor Xa,979 M⁻¹ s⁻¹
same,"kcat, Xa",factor Xa,0.04 s⁻¹
same,"Time (min) for 10% hydrolysis, Xa",factor Xa,45 min
same,"Time (min) for 5% hydrolysis, t-PA",[1]; footnote b,1280 min
same,"Time (min) for 10% hydrolysis, Plm",plasmin (Plm),510 min
same,"Time (min) for 10% hydrolysis, u-PA",urokinase (u-PA),43 min
same,Km,[2]; Table 7,436 µM
same,"kcat /Km, APC",[2]; Table 7,1830 M⁻¹ s⁻¹
same,"kcat, APC",[2]; Table 7,0.8 s⁻¹
same,"Time (min) for 10% hydrolysis, APC",[2],12 min
same,Km,thrombin (IIa); Table 7,41.4 µM
same,"kcat /Km, IIa",thrombin (IIa); Table 7,242 M⁻¹ s⁻¹
same,"kcat, IIa",thrombin (IIa); Table 7,0.01 s⁻¹
same,"Time (min) for 10% hydrolysis, IIa",thrombin (IIa),30 min
Nc1ccc2c(S(=O)(=O)N3CCCCC3)cccc2c1 [ANSNR1 R2; (CH2)5],Relative Fluorescence,[3],68
same,Emission Maxima,[3],473 nm
CC(C)NS(=O)(=O)c1cccc2cc(N)ccc12 [ANSNR1 R2; H; i-C3 H7],Relative Fluorescence,[3],76
same,Emission Maxima,[3],468 nm
Br.CN(C)S(=O)(=O)c1cccc2cc(NC(=O)[C@H](CCCNC(=N)N)NC(=O)OCc3ccccc3)ccc12 [(N^α -Z)ArgANSNR1 R2; CH3; CH3],Km,factor Xa,91.4 µM
same,"kcat /Km, Xa",factor Xa,1020 M⁻¹ s⁻¹
same,"kcat, Xa",factor Xa,0.09 s⁻¹
same,"Time (min) for 10% hydrolysis, Xa",factor Xa,15 min
same,"hydrolysis, t-PA (symbol N.D.)",[1],N.D. (Less than 5% hydrolysis after 24 hrs.)
same,"Time (min) for 10% hydrolysis, Plm",plasmin (Plm),1140 min
same,"hydrolysis, u-PA (symbol N.D.)",urokinase (u-PA),N.D. (Less than 5% hydrolysis after 24 hrs.)
same,"Hydrolysis kinetic constants, APC (symbol b)",[2]; Table 7,b
same,"Time (min) for 10% hydrolysis, APC",[2],200 min
same,Km,thrombin (IIa); Table 7,22.6 µM
same,"kcat /Km, IIa",thrombin (IIa); Table 7,630 M⁻¹ s⁻¹
same,"kcat, IIa",thrombin (IIa); Table 7,0.01 s⁻¹
same,"Time (min) for 10% hydrolysis, IIa",thrombin (IIa),45 min
CCCCCNS(=O)(=O)c1cccc2cc(N)ccc12 [ANSNR1 R2; H; C5 H11],Relative Fluorescence,[3],90
same,Emission Maxima,[3],469 nm
Br.CC(C)NS(=O)(=O)c1cccc2cc(NC(=O)[C@H](CCCNC(=N)N)NC(=O)OCc3ccccc3)ccc12 [(N^α -Z)ArgANSNR1 R2; H; i-C3 H7],Km,factor Xa,102 µM
same,"kcat /Km, Xa",factor Xa,800 M⁻¹ s⁻¹
same,"kcat, Xa",factor Xa,0.08 s⁻¹
same,"Time (min) for 10% hydrolysis, Xa",factor Xa,36 min
same,"hydrolysis, t-PA (symbol N.D.)",[1],N.D. (Less than 5% hydrolysis after 24 hrs.)
same,"Time (min) for 5% hydrolysis, Plm",plasmin (Plm),1370 min
same,"Time (min) for 10% hydrolysis, u-PA",urokinase (u-PA),1260 min
same,Km,[2]; Table 7,343 µM
same,"kcat /Km, APC",[2]; Table 7,510 M⁻¹ s⁻¹
same,"kcat, APC",[2]; Table 7,0.17 s⁻¹
same,"Time (min) for 10% hydrolysis, APC",[2],50 min
same,Km,thrombin (IIa); Table 7,25 µM
same,"kcat /Km, IIa",thrombin (IIa); Table 7,1180 M⁻¹ s⁻¹
same,"kcat, IIa",thrombin (IIa); Table 7,0.03 s⁻¹
same,"Time (min) for 10% hydrolysis, IIa",thrombin (IIa),34 min
"CCN(CC)S(=O)(=O)c1cccc2cc(N)ccc12 [ANSNR1 R2; C2 H5; C2 H5, 6-amino-1-(N,N-diethyl)naphthalenesulfonamide]",Relative Fluorescence,[3],89
same,Emission Maxima,[3],470 nm
Br.CC(C)CNS(=O)(=O)c1cccc2cc(NC(=O)[C@H](CCCNC(=N)N)NC(=O)OCc3ccccc3)ccc12 [(N^α -Z)ArgANSNR1 R2; H; i-C4 H9],Km,factor Xa,86.5 µM
same,"kcat /Km, Xa",factor Xa,811 M⁻¹ s⁻¹
same,"kcat, Xa",factor Xa,0.07 s⁻¹
same,"Time (min) for 10% hydrolysis, Xa",factor Xa,33 min
same,"hydrolysis, t-PA (symbol N.D.)",[1],N.D. (Less than 5% hydrolysis after 24 hrs.)
same,"Time (min) for 5% hydrolysis, Plm",plasmin (Plm),1620 min
same,"Time (min) for 10% hydrolysis, u-PA",urokinase (u-PA),200 min
same,Km,[2]; Table 7,960 µM
same,"kcat /Km, APC",[2]; Table 7,1670 M⁻¹ s⁻¹
same,"kcat, APC",[2]; Table 7,1.6 s⁻¹
same,"Time (min) for 10% hydrolysis, APC",[2],17 min
same,Km,thrombin (IIa); Table 7,35.3 µM
same,"kcat /Km, IIa",thrombin (IIa); Table 7,1420 M⁻¹ s⁻¹
same,"kcat, IIa",thrombin (IIa); Table 7,0.05 s⁻¹
same,"Time (min) for 10% hydrolysis, IIa",thrombin (IIa),25 min
CN(C)S(=O)(=O)c1cccc2cc(N)ccc12 [ANSNR1 R2; CH3; CH3],Relative Fluorescence,[3],65
same,Emission Maxima,[3],472 nm
Nc1ccc2c(S(=O)(=O)NC3CCCCC3)cccc2c1 [ANSNR1 R2; H; cyclo-C6 H11],Relative Fluorescence,[3],101
same,Emission Maxima,[3],466 nm
Nc1ccc2c(S(=O)(=O)NCc3ccccc3)cccc2c1 [ANSNR1 R2; H; benzyl],Relative Fluorescence,[3],75
same,Emission Maxima,[3],467 nm
Nc1ccc2c(S(=O)(=O)N3CCOCC3)cccc2c1 [ANSNR1 R2; morpholyl],Relative Fluorescence,[3],41
same,Emission Maxima,[3],476 nm
CC(C)CNS(=O)(=O)c1cccc2cc(N)ccc12 [ANSNR1 R2; H; i-C4 H9],Relative Fluorescence,[3],100
same,Emission Maxima,[3],468 nm
CCNS(=O)(=O)c1cccc2cc(N)ccc12 [ANSNR1 R2; H; C2 H5],Relative Fluorescence,[3],78
same,Emission Maxima,[3],466 nm
CCCNS(=O)(=O)c1cccc2cc(N)ccc12 [ANSNR1 R2; H; C3 H7],Relative Fluorescence,[3],93
same,Emission Maxima,[3],470 nm
CCCCNS(=O)(=O)c1cccc2cc(N)ccc12 [ANSNR1 R2; H; C4 H9],Relative Fluorescence,[3],63
same,Emission Maxima,[3],467 nm
CNS(=O)(=O)c1cccc2cc(N)ccc12 [ANSNR1 R2; H; CH3],Relative Fluorescence,[3],92
same,Emission Maxima,[3],468 nm
CC(C)(C)NS(=O)(=O)c1cccc2cc(N)ccc12 [ANSNR1 R2; H; t-C4 H9],Relative Fluorescence,[3],112
same,Emission Maxima,[3],465 nm
Nc1ccc2c(S(=O)(=O)N3CCCCCC3)cccc2c1 [ANSNR1 R2; (CH2)6],Relative Fluorescence,[3],96
same,Emission Maxima,[3],469 nm
